Measured values reported in ChEMBL document CHEMBL3745649, “Structure-activity relationship study of anticancer thymidine-quinoxaline conjugates under the low radiance of long wavelength ultraviolet light for photodynamic therapy” (Eur J Med Chem, 2016).
The source made the active and inactive calls. No cut-off for these calls is given here.

What was measured:
[1] = Induction of apoptosis in human PANC1 cells assessed as viable cells at 2 uM after 24 hrs by Annexin V-FITC/propidium iodide staining-based flow cytometric analysis in absence of UVA-1 irradiation (reference value: 88.6%); format: cell-based, PANC-1; settings: read-out: Activity
PANC-1 [2] = assay: Induction of apoptosis in human PANC1 cells assessed as early apoptotic cells at 2 uM preincubated for 5 hrs followed by UVA-1 irradiation at 3 mW/cm'2 for 20 mins measured after 24 hrs by Annexin V-FITC/propidium iodide staining-based flow cytometric analysis (reference value: 7.4%); format: functional
[3] = Dark toxicity against human PANC1 cells assessed as cell viability after 53 hrs by CCK8 assay in absence of UVA-1 irradiation; format: cell-based, PANC-1
[4] = Induction of apoptosis in human PANC1 cells assessed as necrotic cells at 2 uM after 24 hrs by Annexin V-FITC/propidium iodide staining-based flow cytometric analysis in absence of UVA-1 irradiation (reference value: 0.5%); format: cell-based; settings: panc-1, 24 h
PANC-1 [5] = assay: Induction of apoptosis in human PANC1 cells assessed as late apoptotic cells at 2 uM preincubated for 5 hrs followed by UVA-1 irradiation at 3 mW/cm'2 for 20 mins measured after 24 hrs by Annexin V-FITC/propidium iodide staining-based flow cytometric analysis (reference value: 1.3%); format: functional
[6] = Dark toxicity against human Bel7402 cells assessed as cell viability after 53 hrs by CCK8 assay in absence of UVA-1 irradiation; format: cell-based, Bel-7402
PANC-1 [7] = assay: Photocytotoxicity against human PANC1 cells assessed as cell viability pretreated with UVA-1 irradiation at 3.0 mW/cm'2 for 20 mins followed by cell addition measured after 48 hrs by CCK8 assay; format: functional, cell-based
[8] = Photocytotoxicity against human PANC1 cells assessed as cell viability preincubated for 5 hrs with cells followed by UVA-1 irradiation at 3.0 mW/cm'2 for 20 mins measured after 48 hrs by CCK8 assay; format: functional, cell-based; settings: PANC-1, light or radiation study
[9] = Photocytotoxicity against human PANC1 cells assessed as cell viability preincubated for 5 hrs followed by UVA-1 irradiation at 0.85 mW/cm'2 for 20 mins measured after 48 hrs by CCK8 assay; format: functional, cell-based; settings: PANC-1, light or radiation study
[10] = Photocytotoxicity against human Bel7402 cells assessed as cell viability preincubated for 5 hrs followed by UVA-1 irradiation at 5.4 mW/cm'2 for 20 mins measured after 48 hrs by CCK8 assay; format: functional, cell-based; settings: Bel-7402, light or radiation study
PANC-1 [11] = assay: Ratio of EC50 for human PANC1 cells in presence of UVA-1 irradiation at 0.85 mW/cm'2 to EC50 for human PANC1 cells in presence of UVA-1 irradiation at 3 mW/cm'2; format: functional
[12] = Photocytotoxicity against human PANC1 cells assessed as cell viability preincubated for 5 hrs followed by UVA-1 irradiation at 5.4 mW/cm'2 for 20 mins measured after 48 hrs by CCK8 assay; format: functional, cell-based; settings: PANC-1, light or radiation study
[13] = Photocytotoxicity against human Bel7402 cells assessed as cell viability preincubated for 5 hrs with cells followed by UVA-1 irradiation at 3.0 mW/cm'2 for 20 mins measured after 48 hrs by CCK8 assay; format: functional, cell-based; settings: Bel-7402, light or radiation study
[14] = Induction of apoptosis in human PANC1 cells assessed as late apoptotic cells at 2 uM after 24 hrs by Annexin V-FITC/propidium iodide staining-based flow cytometric analysis in absence of UVA-1 irradiation (reference value: 1.5%); format: cell-based; settings: panc-1, 24 h
PANC-1 [15] = assay: Photocytotoxicity against human PANC1 cells assessed as production of reactive oxygen stress at 5 uM preincubated for 5 hrs followed by UVA-1 irradiation at 0.85 mW/cm'2 for 20 mins measured for 4 to 10 mins by DCFH-DA based fluorescence microscopic analysis; format: functional, cell-based
PANC-1 [16] = assay: Photocytotoxicity against human PANC1 cells assessed as production of reactive oxygen stress at 5 uM preincubated for 5 hrs followed by UVA-1 irradiation at 3 mW/cm'2 for 20 mins by DCFH-DA based fluorescence microscopic analysis; format: functional, cell-based
PANC-1 [17] = assay: Induction of apoptosis in human PANC1 cells assessed as viable cells at 2 uM preincubated for 5 hrs followed by UVA-1 irradiation at 3 mW/cm'2 for 20 mins measured after 24 hrs by Annexin V-FITC/propidium iodide staining-based flow cytometric analysis (reference value: 91%); format: functional; settings: PANC-1, light or radiation study, read-out: Activity
Bel-7402 [18] = assay: Potency index, ratio of sunitinib EC50 to compound EC50 for human Bel7402 cells in presence of UVA-1 irradiation at 3 mW/cm'2; format: functional
[19] = Retention time of the compound at 5 uM by HPLC analysis; format: physicochemical
[20] = Induction of apoptosis in human PANC1 cells assessed as early apoptotic cells at 2 uM after 24 hrs by Annexin V-FITC/propidium iodide staining-based flow cytometric analysis in absence of UVA-1 irradiation (reference value: 9.4%); format: cell-based; settings: panc-1, 24 h
PANC-1 [21] = assay: Potency index, ratio of sunitinib EC50 to compound EC50 for human PANC1 cells in presence of UVA-1 irradiation at 3 mW/cm'2; format: functional
[22] = Retention time of the compound in human PANC1 cells at 5 uM after 5 hrs by HPLC analysis in absence of UVA-1 irradiation; format: ADME, cell-based; settings: panc-1, 5 h
[23] = Photocytotoxicity against human Bel7402 cells assessed as cell viability preincubated for 5 hrs with cells followed by white light irradiation at 0.015 mW/cm'2 for 20 mins measured after 48 hrs by CCK8 assay; format: functional, cell-based; settings: Bel-7402, light or radiation study
Bel-7402 [24] = assay: Photocytotoxicity against human Bel7402 cells assessed as production of reactive oxygen stress at 5 uM preincubated for 5 hrs followed by UVA-1 irradiation at 0.85 mW/cm'2 for 20 mins measured for 4 to 10 mins by DCFH-DA based fluorescence microscopic analysis; format: functional, cell-based
Bel-7402 [25] = assay: Photocytotoxicity against human Bel7402 cells assessed as cell viability pretreated with UVA-1 irradiation at 3.0 mW/cm'2 for 20 mins followed by cell addition measured after 48 hrs by CCK8 assay; format: functional, cell-based
[26] = Photocytotoxicity against human PANC1 cells assessed as cell viability at 10 uM preincubated for 5 hrs with cells followed by white light irradiation at 0.015 mW/cm'2 for 20 mins measured after 48 hrs by CCK8 assay relative to control; format: functional; settings: PANC-1, light or radiation study, read-out: Activity
[27] = Photocytotoxicity against human Bel7402 cells assessed as cell viability preincubated for 5 hrs followed by UVA-1 irradiation at 0.85 mW/cm'2 for 20 mins measured after 48 hrs by CCK8 assay; format: functional, cell-based; settings: Bel-7402, light or radiation study
[28] = Photocytotoxicity against human PANC1 cells assessed as cell viability preincubated for 5 hrs with cells followed by white light irradiation at 0.015 mW/cm'2 for 20 mins measured after 48 hrs by CCK8 assay; format: functional, cell-based; settings: PANC-1, light or radiation study
[29] = Photocytotoxicity against human Bel7402 cells assessed as cell viability at 10 uM preincubated for 5 hrs with cells followed by white light irradiation at 0.015 mW/cm'2 for 20 mins measured after 48 hrs by CCK8 assay relative to control; format: functional; settings: Bel-7402, light or radiation study, read-out: Activity
Bel-7402 [30] = assay: Photocytotoxicity against human Bel7402 cells assessed as cell viability preincubated for 24 hrs with cells followed by UVA-1 irradiation for 20 mins at 3.0 mW/cm'2 measured after 48 hrs by CCK8 assay; format: functional, cell-based
[31] = Dark cytotoxicity against human PANC1 cells assessed as production of reactive oxygen stress at 5 uM after 5 hrs by DCFH-DA based fluorescence microscopic analysis in absence of UVA-1 irradiation; format: cell-based; settings: panc-1, 5 h
PANC-1 [32] = assay: Photocytotoxicity against human PANC1 cells assessed as cell viability preincubated for 24 hrs with cells followed by UVA-1 irradiation for 20 mins at 3.0 mW/cm'2 measured after 48 hrs by CCK8 assay; format: functional, cell-based
PANC-1 [33] = assay: Induction of apoptosis in human PANC1 cells assessed as necrotic cells at 2 uM preincubated for 5 hrs followed by UVA-1 irradiation at 3 mW/cm'2 for 20 mins measured after 24 hrs by Annexin V-FITC/propidium iodide staining-based flow cytometric analysis (reference value: 0.3%); format: functional
[34] = Retention time of the compound in human PANC1 cells at 5 uM preincubated for 5 hrs followed by UVA-1 irradiation at 3 mW/cm'2 for 20 mins measured after 5 hrs by HPLC analysis; format: ADME, cell-based; settings: panc-1, 5 µM
Bel-7402 [35] = assay: Ratio of EC50 for human Bel7402 cells in presence of UVA-1 irradiation at 0.85 mW/cm'2 to EC50 for human Bel7402 cells in presence of UVA-1 irradiation at 3 mW/cm'2; format: functional
PANC-1 [36] = assay: Photocytotoxicity against human PANC1 cells assessed as production of reactive oxygen stress at 5 uM preincubated for 5 hrs followed by UVA-1 irradiation at 3 mW/cm'2 for 20 mins measured after 5 hrs by HPLC analysis; format: functional, cell-based

Cc1cn([C@H]2C[C@H](n3cc(CNC(=O)CCCCCOc4ccc5c(c4)-c4nc6cc(Cl)c(Cl)cc6nc4[C@@H]4C(C)(C)CCC[C@]54C)nn3)[C@@H](CO)O2)c(=O)[nH]c1=O
viability at 24 h, 2 µM [1]: 89.4%
Activity (PANC-1 [2]): 11.9%
EC50 at 53 h [3]: ≥ 50000 nM
Activity [4]: 0.4%
Activity (PANC-1 [5]): 44.1%
EC50 at 53 h [6]: > 20000 nM
Activity (PANC-1 [7]): inactive
EC50 [8]: 1300 nM
EC50 [9]: 5700 nM
EC50 [10]: 610 nM
Ratio EC50 (PANC-1 [11]): 4
EC50 [12]: 1200 nM
EC50 [13]: 670 nM
Activity [14]: 1.4%
Activity (PANC-1 [15]): Active
Activity (PANC-1 [16]): Active
viability at 2 µM (PANC-1 [17]): 40.5%
Ratio EC50 (Bel-7402 [18]): 10
Retention_time [19]: 68 min
Activity [20]: 8.8%
Ratio EC50 (PANC-1 [21]): 20
Retention_time [22]: 68 min
EC50 [23]: > 10000 nM
Activity (Bel-7402 [24]): Active
Activity (Bel-7402 [25]): inactive
viability at 10 µM [26]: < 40%
EC50 [27]: 2000 nM
EC50 [28]: > 10000 nM
viability at 10 µM [29]: < 40%
Activity (Bel-7402 [30]): Active
Activity [31]: Non-toxic
Activity (PANC-1 [32]): Active
Activity (PANC-1 [33]): 3.5%
Retention_time [34]: 68 min
Ratio EC50 (Bel-7402 [35]): 3
Activity (PANC-1 [36]): Active
